# Article PMC7655827, “NeoR, a near-infrared absorbing rhodopsin” (Nature Communications, 2020)
# Legend:
# Assay type in all cases: binding
# [1] = biological target: T1, NeoR (RGC3), rhodopsin fragment (Rhizoclosmatium globosum, UniProt A0A1Y2CSJ0, T238P); assay: UV-Vis absorption and fluorescence of purified protein; details: 50 mM HEPES pH 7.4, 200 mM NaCl, 0.02% DDM/0.004% CHS; covalent (retinal Schiff base)
# T1 construct: gene BCR33DRAFT_847233; rhodopsin domain aa 1-279; C-terminal strepII tag (Sf21) or C-terminal 1D4 tag TETSQVAPA (HEK-T, mutants)
# T1 sequence (A0A1Y2CSJ0 entry or part of it T238P): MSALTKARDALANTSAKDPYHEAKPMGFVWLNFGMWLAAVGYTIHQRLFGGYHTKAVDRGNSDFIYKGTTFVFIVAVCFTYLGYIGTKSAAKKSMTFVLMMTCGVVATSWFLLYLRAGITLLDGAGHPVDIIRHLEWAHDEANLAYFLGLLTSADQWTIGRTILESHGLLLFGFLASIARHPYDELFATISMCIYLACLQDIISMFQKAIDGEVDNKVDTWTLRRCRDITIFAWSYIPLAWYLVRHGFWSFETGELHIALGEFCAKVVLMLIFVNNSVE
# [2] = biological target: T2, NeoR (RGC3), rhodopsin fragment (Rhizoclosmatium globosum, UniProt A0A1Y2CSJ0, S191A); assay: as above; details: 50 mM HEPES pH 7.4, 200 mM NaCl, 0.02% DDM/0.004% CHS; covalent (retinal Schiff base)
# T2 construct: gene BCR33DRAFT_847233; rhodopsin domain aa 1-279; C-terminal strepII tag (Sf21) or C-terminal 1D4 tag TETSQVAPA (HEK-T, mutants)
# T2 sequence (A0A1Y2CSJ0 entry or part of it S191A): as the sequence (A0A1Y2CSJ0 entry or part of it T238P) above, with S191A, P238T counted along it
# [3] = biological target: T3, NeoR (RGC3), rhodopsin fragment (Rhizoclosmatium globosum, UniProt A0A1Y2CSJ0, E262Q); assay: as above; details: 50 mM HEPES pH 7.4, 200 mM NaCl, 0.02% DDM/0.004% CHS; covalent (retinal Schiff base)
# T3 construct: gene BCR33DRAFT_847233; rhodopsin domain aa 1-279; C-terminal strepII tag (Sf21) or C-terminal 1D4 tag TETSQVAPA (HEK-T, mutants)
# T3 sequence (A0A1Y2CSJ0 entry or part of it E262Q): as the sequence (A0A1Y2CSJ0 entry or part of it T238P) above, with P238T, E262Q counted along it
# [4] = biological target: T4, NeoR (RGC3), rhodopsin fragment (Rhizoclosmatium globosum, UniProt A0A1Y2CSJ0, E136Q); assay: as above; details: 50 mM HEPES pH 7.4, 200 mM NaCl, 0.02% DDM/0.004% CHS; covalent (retinal Schiff base)
# T4 construct: gene BCR33DRAFT_847233; rhodopsin domain aa 1-279; C-terminal strepII tag (Sf21) or C-terminal 1D4 tag TETSQVAPA (HEK-T, mutants)
# T4 sequence (A0A1Y2CSJ0 entry or part of it E136Q): as the sequence (A0A1Y2CSJ0 entry or part of it T238P) above, with E136Q, P238T counted along it
# [5] = biological target: T5, NeoR full-length protein (Rhizoclosmatium globosum, UniProt A0A1Y2CSJ0); assay: UV-Vis absorption of purified protein; details: detergent; covalent (retinal Schiff base)
# T5 construct: gene BCR33DRAFT_847233; full length aa 1-509, C-terminal His(8) tag, Sf21 insect cells
# T5 sequence (A0A1Y2CSJ0 1-509): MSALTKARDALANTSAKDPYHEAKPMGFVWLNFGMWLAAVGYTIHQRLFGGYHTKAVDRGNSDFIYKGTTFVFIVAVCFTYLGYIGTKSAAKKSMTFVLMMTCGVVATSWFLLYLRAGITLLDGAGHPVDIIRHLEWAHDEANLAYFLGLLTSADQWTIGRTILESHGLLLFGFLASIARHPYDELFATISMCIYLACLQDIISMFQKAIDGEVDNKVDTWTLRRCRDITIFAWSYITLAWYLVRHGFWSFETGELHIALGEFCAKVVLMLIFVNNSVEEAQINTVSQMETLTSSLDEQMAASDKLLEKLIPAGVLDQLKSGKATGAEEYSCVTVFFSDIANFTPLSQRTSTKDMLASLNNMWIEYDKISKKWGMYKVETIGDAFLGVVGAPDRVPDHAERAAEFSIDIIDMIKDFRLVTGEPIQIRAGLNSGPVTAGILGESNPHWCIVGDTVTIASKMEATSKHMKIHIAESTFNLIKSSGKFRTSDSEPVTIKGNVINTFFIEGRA
# [6] = biological target: T6, NeoR (RGC3), rhodopsin fragment (Rhizoclosmatium globosum, UniProt A0A1Y2CSJ0); assay: UV-Vis absorption and fluorescence of purified protein; details: 50 mM HEPES pH 7.4, 200 mM NaCl, 0.02% DDM/0.004% CHS; covalent (retinal Schiff base)
# T6 construct: gene BCR33DRAFT_847233; rhodopsin domain aa 1-279; C-terminal strepII tag (Sf21) or C-terminal 1D4 tag TETSQVAPA (HEK-T, mutants)
# [7] = biological target: T7, NeoR (RGC3), rhodopsin fragment (Rhizoclosmatium globosum, UniProt A0A1Y2CSJ0, T238A); assay: as above; details: 50 mM HEPES pH 7.4, 200 mM NaCl, 0.02% DDM/0.004% CHS; covalent (retinal Schiff base)
# T7 construct: gene BCR33DRAFT_847233; rhodopsin domain aa 1-279; C-terminal strepII tag (Sf21) or C-terminal 1D4 tag TETSQVAPA (HEK-T, mutants)
# T7 sequence (A0A1Y2CSJ0 entry or part of it T238A): as the sequence (A0A1Y2CSJ0 entry or part of it T238P) above, with P238A counted along it
smiles,measurement,setting,value
CC1=C(/C=C/C(C)=C/C=C/C(C)=C/C=O)C(C)(C)CCC1 [all-trans retinal],UV-Vis absorption and fluorescence of purified protein,[1],"achieved by mutation of S191A and T238P/A, which are located near the β-ionone ring"
same,UV-Vis absorption and fluorescence of purified protein,[2],"achieved by mutation of S191A and T238P/A, which are located near the β-ionone ring"
same,UV-Vis absorption and fluorescence of purified protein,[3],Mutation of either one of these to Gln results in chromophore deprotonation
same,UV-Vis absorption and fluorescence of purified protein,[4],Mutation of either one of these to Gln results in chromophore deprotonation
same,UV-Vis absorption of purified protein,[5],The spectral properties are similar for the NeoR full-length protein and the rhodopsin fragment
same,UV-Vis absorption and fluorescence of purified protein,[6],in the absence of retinal no functional rhodopsin was produced when recombinant NeoR was expressed
same,UV-Vis absorption and fluorescence of purified protein,[7],"achieved by mutation of S191A and T238P/A, which are located near the β-ionone ring"
